# Patent US6809083B1, “Use of N-substituted-1, 5-dideoxy-1, 5-imino-D-glucitol compounds for treating hepatitis virus infections” (priority 1998, dated 2004)
# What was measured:
# [1] = tested on: woodchuck hepatitis virus (WHV); assay: Woodchuck model, N-nonyl-DNJ monotherapy, BID oral dosing for 4 weeks; total HBV DNA and IPDNA by quantitative PCR; type: in vivo
# Source text: In order to evaluate the efficacy of N-nonyl-DNJ in combination with 3TC (or other nucleoside or nucleotide analogs) against Hepatitis B virus in a woodchuck animal model, an monotherapy experiment using N-nonyl-DNJ alone was first conducted. This was necessary to determine if N-nonyl-DNJ has any anti-HBV effect in the woodchuck and, if N-nonyl-DNJ has a beneficial effect, to design a combination study based on the dose-response relationship of this drug alone.
# Therefore, five groups of four animals each (all groups had both sexes, all but the control had two of each sex) were assigned to 0, 12.5, 25, 50, and 100 mg/kg/day with BID oral dosing. These were lab-reared wild animals. All animals were infected with woodchuck hepatitis virus (WHV) as neonates, and had been tested positive on serological tests for WHV surface antigen. Blood samples were drawn one week prior to dosing (−1 week), immediately before dosing (0 weeks), weekly during dosing (1, 2, 3, and 4 weeks), and after the end of dosing (5, 6, 8, and 10 weeks).
# There are two measures of drug efficacy: reduction in total HBV DNA (measured by quantitative PCR), and reduction in HBV DNA from capsids with intact surface glycoproteins, which is the active form of the virus (measured by an ELISA-like immune precipitation assay followed by quantitative PCR).
# Before models are fitted to the data, a log transform was applied because: 1) the variation in IPDNA increases with increasing IPDNA values; the log transformation gives values with a nearly constant variation, and 2) it is expected that drug effects will appear as a constant multiplier of the IPDNA level. Because there are zero values of IPDNA, a small value (about 1/2 of the smallest non-zero value) was added to all values before the log transform.
# Two approaches were used to model the changes in slope to week with dose of N-nonyl-DNJ: a linear modeling approach and a nonlinear model. Both approaches assume that the (linear) rate of change of the Log(IPDNA) measure over the dosing period is the “right” measure to reflect the effect of the drug on the virus. Both approaches are fit in stages, and the first stage is common to both approaches. First, a simple straight line regression model is fit using weeks 0-4 to predict log(IPDNA+10) separately for each animal by run combination. In the second stage, the response variable is the slope fitted in the first stage.
# For the linear approach, a model is fit with slope to week as the response where run is considered a block, dose has a significant effect (almost all of this effect is due to a slope to dose), and the relevant error for testing the effect of dose is the variation among animals treated alike (after the adjustment for the runs as blocks). This is similar to using the calibration data within each run to first adjust each run's data to a common virus DNA concentration; the difference is that here the data from the woodchucks are used for the run adjustment rather than only the calibration data.
# For the nonlinear approach, a four parameter logistic model is fit with the slope to week as the response and the dose as the predictor. Again, run is considered a block, but because no run has all weeks, it is not possible to fully reflect the blocking in the nonlinear approach. […] The average maximum slope observed was 2.71 additional Log(IPDNA μg/mL)/week, or an increase of about 150%/week, the average minimum slope observed with N-nonyl-DNJ is 0.31 fewer Log(IPDNA μg/mL)/week), or about a decrease of about 25%/week. The slopes, the fitted model, the parameter estimates from the model, and the approximate standard errors for these parameters are all shown in FIG. 3. […] Whether in woodchucks or humans, the effective dose of both the N-alkyl-DNJ and nucleoside or nucleotide antiviral agent administered in combination therewith can be administered in two equal daily subdoses (i.e., B.I.D.).
# [2] = tested on: Hepatitis B Virus; assay: IC-90 of N-nonyl-DNJ (T. Block and G. Jacob, unpublished observation); type: cell-based
# Protocol: The anti-hepatitis B virus effect of (−)-2′-deoxy-3′-thiocytidine-5′-triphosphate (3TC) alone and in combination with N-nonyl-DNJ was determined according to Korba ((1996) Antiviral Research 29(1):49-51), using the “combostat” strategy (Comstat Program, Combostat Corp., Duluth, Minn.). The combostat method involves serially diluting the IC-90 of each compound. The IC-90 of N-nonyl-DNJ has been determined to be between 4 and 10 μg/ml (T. Block and G. Jacob, unpublished observation). The accepted IC-90 for 3TC in HepG 2.2.15 (2.2.15) cells is 300 nM to 500 nM (Doong et al. (1991) Proc. Natl. Acad. Sci. USA 88:8495-8499).
# [3] = tested on: Hepatitis B Virus; assay: Hepatitis B virus secretion from chronically HBV secreting HepG2.2.15 cells (preS1 immunoprecipitation of virions, PCR of viral DNA); type: cell-based; conditions: 3 days incubation
# Protocol: (§1) The anti-hepatitis B virus activity and effect on cell viability of a number of different N-substituted-1,5-dideoxy-1,5-imino-D-glucitol compounds were assessed using an in vitro assay employing chronically hepatitis B virus secreting HepG2.2.15 cells. The method employed was essentially that described in Block et al. (1994) Proc. Natl. Acad. Sci. USA 91:2235-2239.
# [4] = tested on: HepG2.2.15 cells; assay: Viability of HepG2.2.15 cells, trypan blue exclusion; type: cell-based; conditions: [200] and [1000]; trypan blue staining not performed
# Protocol: as §1
# [5] = concentration [200] (unit not given)
# [6] = concentration [1000] (unit not given)
Structure (SMILES),"effect on total HBV DNA measurements ([1]; woodchuck, all dose levels, pre-dose and dosed portions of the study)","average minimum slope observed ([1]; woodchuck, weeks 0-4)","decrease of IPDNA corresponding to average minimum slope ([1]; woodchuck, weeks 0-4)","increase of IPDNA corresponding to average maximum slope ([1]; woodchuck, weeks 0-4)","average maximum slope observed ([1]; woodchuck, weeks 0-4, upper end of dose-response model)","approximate effective monotherapy dose ([1]; woodchucks, oral)",IC90 [2],"Relative amount of HBV secreted, as a % of control [3, 5]","Relative amount of HBV secreted, as a % of control [3, 6]",Appearance of cells by gross microscopic examination [4]
"CCCCCCCCCN1C[C@H](O)[C@@H](O)[C@H](O)[C@H]1CO [Compound 1, N-(n-nonyl)-1,5-dideoxy-1,5-imino-D-glucitol]",no effect,0.31 fewer Log(IPDNA μg/mL)/week,about 25 %/week,about 150 %/week,2.71 additional Log(IPDNA μg/mL)/week,about 16 mg/kg/day,4 to 10 µg/mL,,,
"CCC(CC)CN1C[C@H](O)[C@@H](O)[C@H](O)[C@H]1CO [Compound 3, N-(2-ethylbutyl)-1,5-dideoxy-1,5-imino-D-glucitol]",,,,,,,,45.0 +/− 30 (n = 3) % of control,5.0 +/− 20 (n = 3) % of control,"^5Although trypan blue viability staining was not performed, cells appeared unremarkable (healthy) by gross microscopic examination."
"CCCCN1C[C@H](O)[C@@H](O)[C@H](O)[C@H]1CO [NBDNJ, N-(n-butyl-)-1,5-dideoxy-1,5-imino-D-glucitol, reference compound]",,,,,,,,37.0 +/− 13 (n = 15) % of control,3.2 +/− 5 (n = 15) % of control,
